Assay results published in patent US20230040386A1, “URSODEOXYCHOLIC ACID-CONTAINING AGENT FOR TREATING OR PREVENTING PRESBYOPIA” (priority 2018, published 2023).

Experiments:
lens [1] = assay: Pharmacological Test 3: lens elasticity after instillation of ursodeoxycholic acid (free form); type: in vivo, C57BL/6J mice; details: 2.5 μL/eye, 3 times per day, 12 to 15 days, vs vehicle control
Protocol: A vehicle comprising 0.1% (w/v) of ethyl pyruvate, 0.269% (w/v) of sodium dihydrogenphosphate monohydrate (NaH2PO4H2O), 0.433% (w/v) of disodium hydrogenphosphate (Na2HPO4), 0.2% (w/v) of hydroxypropyl methylcellulose, and 0.5% (w/v) of NaCl was prepared. Ursodeoxycholic acid was sonicated with the addition of the vehicle to prepare a 1.5% (w/v) suspension. The resulting 1.5% (w/v) suspension was diluted with the vehicle to prepare a 0.5% (w/v) suspension. Further, the resulting 0.5% (w/v) suspension was diluted with the vehicle to prepare a 0.15% (w/v) suspension. The total amount of each sample to be used in one day was prepared before use. EV06 was sonicated with the addition of the vehicle to prepare a 1.5% (w/v) solution. The total amount of the sample to be used in one day was prepared before use. 1) Each test sample (2.5 μL/eye) was instilled into the right eye of 8-month-old C57BL/6J mice with a Pipetman 3 times per day (around 9:00, 13:00 and 17:00) for 12 to 15 days. 2) After the final instillation, the mice were euthanized by carbon dioxide inhalation, and then the eyeballs were extracted and rinsed with Hank's balanced salt solution (HBSS). 3) The sclera near the optic nerve was cut with a razor, the lens was removed through the incision, and the removed lens was immersed in HBSS. 4) The lens was placed on a glass slide, and an all-in-one fluorescence microscope BZ-9000 (Keyence) was used to capture an image of the lens (Image a). 5) Next, one cover glass (Corning^(registered trade mark) 22×22 mm Square) was placed on the lens, and an image in which the thickness of the lens changed due to the weight was similarly captured (image b). 6) A change in the lens diameter was calculated from Equation 1 wherein the lens diameter of Image a is subtracted from the lens diameter of Image b, as described below. Then, the lens elasticity improvement of each sample group compared with the vehicle control group was calculated from Equation 2 described below. The mean of the vehicle control group was based on 5 eyes, the mean of each ursodeoxycholic acid sample group was based on 10 eyes, and the mean of the EV06 sample group was based on 10 eyes. Change in lens diameter=Lens diameter in Image b of each test sample−Lens diameter in Image a of each test sample (Equation 1) Lens elasticity improvement of each sample group=Mean change in lens diameter of each Test sample group−Mean change in lens diameter of Vehicle control group (Equation 2)

lens [2] = assay: Pharmacological Test 4: lens elasticity, once-daily instillation of ursodeoxycholic acid for 2 weeks; type: in vivo, C57BL/6J mice; details: 14 days; for Lens elasticity improvement: vs vehicle control; for Lens elasticity improvement, in words: instilled once-daily, 1% and 3% ursodeoxycholic acid samples, 1.5% EV06 sample
Protocol: A vehicle comprising 0.1% (w/v) of ethyl pyruvate, 0.269% (w/v) of sodium dihydrogenphosphate monohydrate (NaH2PO4H2O), 0.433% (w/v) of disodium hydrogenphosphate (Na2HPO4), 0.2% (w/v) of hydroxypropyl methylcellulose, 0.5% (w/v) of NaCl was prepared. Ursodeoxycholic acid was sonicated with the addition of the vehicle to prepare a 3.0% (w/v) suspension. The resulting 3.0% (w/v) suspension was diluted with the vehicle to prepare a 1.0% (w/v) suspension. Further, the resulting 1.0% (w/v) suspension was diluted with the vehicle to prepare a 0.3% (w/v) suspension. The total amount of each sample to be used in one day was prepared before use. EV06 was sonicated with the addition of the vehicle to prepare a 1.5% (w/v) solution. The total amount of the sample to be used in one day was prepared before use. 1) Each test sample (2.5 μL/eye) was instilled into the right eye of 8-month-old C57BL/6J mice with a Pipetman once per day (QD; around 9:00), twice per day (BID; around 9:00 and 17:00), or 3 times per day (TID; around 9:00, 13:00 and 17:00) for 14 days. 2) After the final instillation, the mice were euthanized by carbon dioxide inhalation, and then the eyeballs were extracted and rinsed with Hank's balanced salt solution (HBSS). 3) The sclera near the optic nerve was cut with a razor, the lens was removed through the incision, and the removed lens was immersed in HBSS. 4) The lens was placed on a glass slide, and an all-in-one fluorescence microscope BZ-9000 ([…]) was used to capture an image of the lens (image a). 5) Next, one cover glass (Corning^(registered trade mark) 22×22 mm Square) was placed on the lens, and an image in which the thickness of the lens changed due to the weight was similarly captured (Image b). 6) A change in the lens diameter was calculated from Equation 1 wherein the lens diameter of Image a is subtracted from the lens diameter of Image b, as described below. Then, the lens elasticity improvement of each sample group compared with the vehicle control group was calculated from Equation 2 described below. The mean of the vehicle control group was based on 5 eyes, the mean of each ursodeoxycholic acid sample group was based on 10 eyes, and the mean of each EV06 sample group was based on 10 eyes. Change in lens diameter=Lens diameter in Image b of each test sample-Lens diameter in Image a of each test sample (Equation 1) Lens elasticity improvement of each sample group=Mean change in lens diameter of each Test sample group-Mean change in lens diameter of Vehicle control group (Equation 2)

Structure (SMILES) | Lens elasticity improvement (lens [1]; 1.5% (w/v) sample) | Lens elasticity improvement (lens [2]; 1.5% (w/v) sample, BID) | Lens elasticity improvement (lens [2]; 1.5% (w/v) sample, QD) | Lens elasticity improvement (lens [2]; 1.5% (w/v) sample, TID) | Lens elasticity improvement, in words (lens [2]) | Lens elasticity improvement (lens [1]; 0.15% (w/v) sample) | Lens elasticity improvement (lens [1]; 0.5% (w/v) sample) | Lens elasticity improvement (lens [2]; 0.3% (w/v) sample, QD) | Lens elasticity improvement (lens [2]; 1% (w/v) sample, QD) | Lens elasticity improvement (lens [2]; 3% (w/v) sample, QD)
C[N+](C)(C)CCOC(=O)CCCC[C@@H]1CCSS1 [EV06, lipoic acid choline ester] | 42.5 μm | 15.7 μm | −3.6 μm | 29.5 μm | no effect |  |  |  |  | 
C[C@H](CCC(=O)O)[C@H]1CC[C@H]2[C@@H]3[C@@H](O)C[C@@H]4C[C@H](O)CC[C@]4(C)[C@H]3CC[C@]12C [ursodeoxycholic acid, 3α,7β-Dihydroxy-5β-cholan-24-oic acid] | 59.9 μm |  |  |  | potent lens elasticity improvement | 31.8 μm | 39.4 μm | 2.8 μm | 28.1 μm | 30.4 μm
